In ChEMBL document CHEMBL1157484, “Protein subtype-targeting through ligand epimerization: talose-selectivity of galectin-4 and galectin-8” (Bioorg Med Chem Lett, 2008):

How the values were obtained:
[1] = Binding affinity to human galectin4C by fluorescence polarization assay
[2] = Binding affinity to human galectin8N by fluorescence polarization assay
[3] = Binding affinity to human galectin9N by fluorescence polarization assay
[4] = biological target: T1, Galectin-2 (Homo sapiens, UniProt P05162); assay: Binding affinity to human galectin2 by fluorescence polarization assay
T1 sequence (P05162 whole entry): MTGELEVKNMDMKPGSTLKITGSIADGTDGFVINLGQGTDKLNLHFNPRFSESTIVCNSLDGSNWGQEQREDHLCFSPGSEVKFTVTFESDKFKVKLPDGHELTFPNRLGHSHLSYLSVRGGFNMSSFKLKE

[5] = Binding affinity to human galectin4N by fluorescence polarization assay
[6] = biological target: Galectin-3 (Homo sapiens, UniProt P17931); assay: Binding affinity to human galectin3 by fluorescence polarization assay
[7] = biological target: Galectin-1 (Homo sapiens, UniProt P09382); assay: Binding affinity to human galectin1 by fluorescence polarization assay
Chain of Galectin-1 (P09382 whole entry): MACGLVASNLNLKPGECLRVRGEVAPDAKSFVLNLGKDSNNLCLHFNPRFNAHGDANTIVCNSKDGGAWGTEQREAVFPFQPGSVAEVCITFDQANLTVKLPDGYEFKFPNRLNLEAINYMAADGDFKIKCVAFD

Chain of Galectin-3 (P17931 whole entry): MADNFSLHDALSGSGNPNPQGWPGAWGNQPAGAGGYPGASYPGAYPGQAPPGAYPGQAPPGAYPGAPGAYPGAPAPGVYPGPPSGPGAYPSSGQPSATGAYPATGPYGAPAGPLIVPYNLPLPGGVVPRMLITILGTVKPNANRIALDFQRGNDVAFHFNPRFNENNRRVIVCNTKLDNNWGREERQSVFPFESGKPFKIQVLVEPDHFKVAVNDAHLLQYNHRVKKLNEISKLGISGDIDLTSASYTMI

| SMILES | Kd [1] [mM] | Kd [2] [mM] | Kd [3] [mM] | Kd [4] [mM] | Kd [5] [mM] | Kd [6] [mM] | Kd [7] [mM] |
| --- | --- | --- | --- | --- | --- | --- | --- |
| CO[C@@H]1O[C@H](CO)[C@H](O)[C@H](OC(=O)c2ccc(C)cc2)[C@@H]1OC(C)=O | 1.6 | > 4 | > 4 | > 4 | > 4 | 0.55 | > 4 |
| CO[C@@H]1O[C@H](CO)[C@H](O)[C@H](OC(=O)c2ccc(C)cc2)[C@@H]1O[PH](=O)O | > 4 | – | > 4 | 1.5 | > 4 | 2.3 | > 4 |
| CO[C@@H]1O[C@H](CO)[C@H](O)[C@H](OC(=O)c2ccc(C)cc2)[C@@H]1O | – | 0.4 | > 4 | – | > 4 | 1.4 | 2 |

Second part, the compound after the results:

| Kd [1] [mM] | Kd [2] [mM] | Kd [3] [mM] | Kd [4] [mM] | Kd [5] [mM] | Kd [6] [mM] | Kd [7] [mM] | SMILES |
| --- | --- | --- | --- | --- | --- | --- | --- |
| > 10 | 6.3 | 1.2 | 13 | 6.6 | – | – | CO[C@@H]1O[C@H](CO)[C@H](O)[C@H](O)[C@H]1O |
| > 4 | 1 | > 4 | > 4 | > 4 | 0.6 | > 4 | CO[C@@H]1O[C@H](CO)[C@H](O)[C@H](OC(=O)c2ccc(C)cc2)[C@@H]1OP(=O)(O)OC |
| 0.16 | 3.6 | > 4 | > 4 | > 4 | 0.7 | 1.8 | CO[C@@H]1O[C@H](CO)[C@H](O)[C@H](OC(=O)c2ccc(C)cc2)[C@@H]1OC(=O)c1ccc(C)cc1 |
| 10 | 1.5 | 4.6 | > 10 | > 10 | – | – | CO[C@@H]1O[C@H](CO)[C@H](O)[C@H](O)[C@@H]1O |
| 3 | 1.1 | > 4 | > 4 | > 4 | 0.25 | > 4 | CO[C@@H]1O[C@H](CO)[C@H](O)[C@H](OC(=O)c2ccc(C)cc2)[C@@H]1OS(=O)(=O)O |
